Legend:
[1] = test system: PC-3; experiment: Antiproliferative activity against human PC-3 cells; assay type: functional, cell-based
[2] = test system: K562; experiment: Antiproliferative activity against human K562 cells; assay type: functional, cell-based
[3] = test system: A549; experiment: Antiproliferative activity against human A549 cells; assay type: functional, cell-based
[4] = test system: COLO 205; experiment: Antiproliferative activity against human COLO 205 cells; assay type: functional, cell-based
[5] = test system: MDA-MB-231; experiment: Antiproliferative activity against human MDA-MB-231 cells; assay type: functional, cell-based; conditions: Homo sapiens, MDA-MB-231
[6] = Cytotoxicity against human HEK293 cells; assay type: toxicity, cell-based
[7] = test system: A-431; experiment: Antiproliferative activity against human A-431 cells; assay type: functional, cell-based
[8] = test system: HEK293; experiment: Antiproliferative activity against human HEK293 cells; assay type: functional, cell-based
[9] = test system: Leukemia cell; experiment: Antiproliferative activity against human Leukemia cell; assay type: functional
[10] = test system: Melanoma cell line; experiment: Antiproliferative activity against human Melanoma cell; assay type: functional
[11] = test system: Prostatic carcinoma cell; experiment: Antiproliferative activity against human Prostatic carcinoma cell; assay type: functional
[12] = test system: Plasmodium falciparum; experiment: Antiplasmodial activity against Plasmodium falciparum HB3; assay type: functional, organism-based
[13] = test system: Plasmodium falciparum; experiment: Antiplasmodial activity against Plasmodium falciparum K1; assay type: functional, organism-based
[14] = test system: Colon cell line; experiment: Antiproliferative activity against human Colon cell line; assay type: functional
[15] = Cytotoxicity against CHO cells; assay type: toxicity, cell-based, Cricetulus griseus; conditions: Chinese hamster
[16] = test system: MCF7; experiment: Anticancer activity against human MCF7 cells; assay type: functional, cell-based
[17] = Blood clearance in rat at 100 mg/kg, po; assay type: ADME, organism-based
[18] = test system: TK-10; experiment: Anticancer activity against human TK-10 cells assessed as total growth inhibition; assay type: functional
[19] = test system: UACC-62; experiment: Anticancer activity against human UACC-62 cells assessed as total growth inhibition; assay type: functional
[20] = test system: MCF7; experiment: Anticancer activity against human MCF7 cells assessed as total growth inhibition; assay type: functional
[21] = test system: UACC-62; experiment: Anticancer activity against human UACC-62 cells; assay type: functional, cell-based
[22] = test system: TK-10; experiment: Anticancer activity against human TK-10 cells; assay type: functional, cell-based
[23] = test system: HT-29; experiment: Antiproliferative activity against human HT-29 cells; assay type: functional, cell-based
[24] = test system: EL4; experiment: Antiproliferative activity against mouse EL4 cells; assay type: functional, cell-based
[25] = Cytotoxicity against human U87 cells assessed as cell growth inhibition measured after 48 hrs by MTT assay; assay type: functional, U-87MG ATCC; conditions: U-87 MG
[26] = test system: HeLa; experiment: Cytotoxicity against human HeLa cells assessed as cell growth inhibition measured after 48 hrs by MTT assay; assay type: functional
[27] = test system: DLD-1; experiment: Cytotoxicity against human DLD-1 cells assessed as cell growth inhibition measured after 48 hrs by MTT assay; assay type: functional
[28] = test system: SiHa; experiment: Cytotoxicity against human SiHa cells assessed as cell growth inhibition measured after 48 hrs by MTT assay; assay type: functional
[29] = test system: HSC-2; experiment: Cytotoxicity against human HSC-2 cells; assay type: functional, cell-based
[30] = test system: Ca9-22; experiment: Cytotoxicity against human Ca9-22 cells; assay type: functional, cell-based
[31] = test system: B16; experiment: Cytotoxicity against mouse B16 cells assessed as cell growth inhibition measured after 48 hrs by MTT assay; assay type: functional
[32] = test system: A 172; experiment: Cytotoxicity against human A-172 cells assessed as cell growth inhibition measured after 48 hrs by MTT assay; assay type: functional
[33] = test system: SMMC-7721; experiment: Antiproliferative activity against human SMMC-7721 cells; assay type: functional, cell-based
[34] = test system: A549; experiment: Antiproliferative activity against human A549 cells assessed as reduction in cell viability measured for 24 hrs; assay type: functional, cell-based; conditions: A549, 24 h
[35] = test system: HCT-15; experiment: Antiproliferative activity against human HCT-15 cells assessed as cell growth inhibition by MTT assay; assay type: functional, cell-based
[36] = test system: A549; experiment: Antiproliferative activity against human A549 cells assessed as cell growth inhibition by MTT assay; assay type: functional, cell-based
[37] = test system: HepG2; experiment: Antiproliferative activity against human HepG2 cells assessed as cell growth inhibition by MTT assay; assay type: functional, cell-based
[38] = Cytotoxicity against human HCEC cells; assay type: toxicity, cell-based
[39] = test system: PC-3; experiment: Antiproliferative activity against human PC-3 cells assessed as reduction in cell viability measured for 24 hrs; assay type: functional, cell-based; conditions: PC-3, 24 h
[40] = test system: SGC-7901; experiment: Antiproliferative activity against human SGC-7901 cells assessed as reduction in cell viability measured for 24 hrs; assay type: functional, cell-based; conditions: SGC-7901, 24 h
[41] = test system: Leukemia cell; experiment: Antiproliferative activity against human Leukemia cell assessed as reduction in cell viability; assay type: functional, cell-based
[42] = test system: HeLa; experiment: Antiproliferative activity against human HeLa cells assessed as reduction in cell viability; assay type: functional, cell-based
[43] = test system: HeLa; experiment: Cytotoxicity against human HeLa cells assessed as cell viability incubated for 48 hrs by MTT assay; assay type: functional, cell-based
[44] = Antiproliferative activity against human 1205Lu cells; assay type: functional, cell-based

SMILES: C[C@H]1[C@@H](OCc2cn(-c3ccccc3C(=O)/C=C/c3ccccc3C(F)(F)F)nn2)O[C@@H]2O[C@@]3(C)CC[C@H]4[C@H](C)CC[C@@H]1[C@@]24OO3
- IC50 [1]: 4.06 µM
- IC50 [2]: 4.06 µM
- IC50 [3]: 4.06 µM
- IC50 [4]: 4.06 µM
- IC50 [5]: 4.06 µM
- IC50 [6]: > 100 µg/mL
- IC50 [7]: 4.06 µM
- IC50 [8]: 4.06 µM

SMILES: C[C@H]1[C@@H](CCOP(=O)(OCC[C@H]2[C@@H](C)O[C@@H]3O[C@@]4(C)CC[C@H]5[C@H](C)CC[C@@H]2[C@@]35OO4)Oc2ccccc2)O[C@@H]2O[C@@]3(C)CC[C@H]4[C@H](C)CC[C@@H]1[C@@]24OO3 (stereo partly specified)
- GI50 [9]: 0.01 µM
- GI50 [10]: < 0.01 µM
- GI50 [11]: < 0.01 µM
- IC50 [12]: 0.09 nM
- IC50 [13]: 0.09 nM
- GI50 [14]: < 0.01 µM

SMILES: C[C@H]1[C@@H](OCC[N+]2(CCO[C@H]3O[C@@H]4O[C@@]5(C)CC[C@H]6[C@H](C)CC[C@@H]([C@H]3C)[C@@]46OO5)CCN(CCNc3ccnc4cc(Cl)ccc34)CC2)O[C@@H]2O[C@@]3(C)CC[C@H]4[C@H](C)CC[C@@H]1[C@@]24OO3.[Br-]
- IC50 [15]: 74.8 µM
- GI50 [16]: 0.03 µM
- CL/F [17]: 287 L/h/kg
- TGI [18]: 2.21 µM
- TGI [19]: 2.21 µM
- TGI [20]: 2.21 µM
- GI50 [21]: 0.03 µM
- GI50 [22]: 0.03 µM

SMILES: C[C@H]1[C@@H](CCSCC[C@H]2O[C@@H]3O[C@@]4(C)CC[C@H]5[C@H](C)CC[C@@H]([C@H]2C)[C@@]35OO4)O[C@@H]2O[C@@]3(C)CC[C@H]4[C@H](C)CC[C@@H]1[C@@]24OO3
- IC50 [23]: 0.017 µM
- IC50 [16]: 0.017 µM
- IC50 [24]: 0.017 µM

SMILES: C[C@H]1[C@@H](OCCN(CCCNc2ccnc3cc(Cl)ccc23)CCO[C@H]2O[C@@H]3O[C@@]4(C)CC[C@H]5[C@H](C)CC[C@@H]([C@H]2C)[C@@]35OO4)O[C@@H]2O[C@@]3(C)CC[C@H]4[C@H](C)CC[C@@H]1[C@@]24OO3
- IC50 [15]: 0.68 µM
- GI50 [16]: 0.03 µM
- CL/F [17]: 184 L/h/kg
- TGI [18]: 2.21 µM
- TGI [19]: 2.21 µM
- TGI [20]: 2.21 µM
- GI50 [21]: 0.03 µM
- GI50 [22]: 0.03 µM

SMILES: CC(=O)O[C@H]1C(=O)[C@@]2(C)[C@H]([C@H](OC(=O)c3ccccc3)[C@]3(O)C[C@H](OC(=O)[C@H](O)[C@@H](NC(=O)c4ccccc4)c4ccccc4)C(C)=C1C3(C)C)[C@]1(OC(C)=O)CO[C@@H]1C[C@@H]2O [PACLITAXEL]
- IC50 [16]: > 40 µM
- GI50 [25]: 0.01 µM
- GI50 [26]: 0.01 µM
- GI50 [27]: 0.01 µM
- GI50 [28]: 0.01 µM
- IC50 [29]: > 100 µM
- IC50 [30]: > 100 µM
- GI50 [31]: 0.01 µM
- GI50 [32]: 0.01 µM

SMILES: C[C@H]1[C@H](N2CCS(=O)(=O)[C@H](CCCCCCOC(=O)c3ccc([N+](=O)[O-])cc3C(=O)O)C2)O[C@@H]2O[C@@]3(C)CC[C@H]4[C@H](C)CC[C@@H]1[C@@]24OO3
- IC50 [33]: 0.06 µM

SMILES: O=c1[nH]cc(F)c(=O)[nH]1 [FLUOROURACIL]
- IC50 [34]: 6.8 µM
- IC50 [16]: > 40 µM
- IC50 [35]: 33.7 µM
- IC50 [36]: 33.7 µM
- IC50 [37]: 33.7 µM
- IC50 [38]: > 100 µM
- IC50 [39]: 6.8 µM
- IC50 [40]: 6.8 µM

SMILES: C[C@@H]1CC[C@@H]2[C@]34OO[C@](C)(CC[C@@H]13)O[C@H]4OC(=O)[C@@]21CC(c2ccccc2)=NO1
- IC50 [35]: 4.04 µM
- IC50 [36]: 4.04 µM
- IC50 [37]: 4.04 µM

SMILES: C[C@H]1[C@@H](OCc2cn(-c3ccc(O)cc3)nn2)O[C@@H]2O[C@@]3(C)CC[C@H]4[C@H](C)CC[C@@H]1[C@@]24OO3
- IC50 [1]: 4.06 µM
- IC50 [2]: 4.06 µM
- IC50 [3]: 4.06 µM
- IC50 [4]: 4.06 µM
- IC50 [5]: 4.06 µM
- IC50 [6]: > 100 µg/mL
- IC50 [7]: 4.06 µM
- IC50 [8]: 4.06 µM

SMILES: C[C@H]1[C@H](OC(=O)CCC(=O)O)O[C@@H]2O[C@@]3(C)CC[C@H]4[C@H](C)CC[C@@H]1[C@@]24OO3 [ARTESUNATE]
- IC50 [41]: 6.89 µM
- IC50 [42]: 11.3 µM
- IC50 [43]: 0.5 µM
- IC50 [44]: 7.1 µM

Reference: ChEMBL document CHEMBL5244230, “Artemisinin-derived hybrids and their anticancer activity” (Eur J Med Chem, 2020)
